One data set relates to C. elegans. Kind of data set: C. elegans larval growth assay: heat-killed E. coli plus trace live E. coli, worm volume. Format: in vivo. To be noted: for worm growth with dietary supplementation: worms fed heat-killed E. coli plus live entA- or entF- mutant E. coli (Ent-deficient food). An excerpt: In one embodiment of the inventive technology, the present inventors created a unique assay to facilitate the identification of microbial metabolites that benefit growth and development of host animals. […] This unique feeding condition was used to search for E. coli mutants that fail to support normal worm growth, potentially due to their inability to provide specific metabolites to benefit host animals.
E. coli Keio collection screen. Preparation of heat-killed (HK) OP50 plates followed the procedure described previously (Qi et al., 2017). Standard overnight culture of E. coli OP50 grown in LB broth was concentrated to 1/10 vol and was then heat-killed in a 75° C. water bath for 90 min. The 150 µl of the HK-OP50 was spread onto one side of NGM plate. For preparation of bacterial mutant assay plates, E. coli Keio (Baba et al., 2006) mutants were grown overnight at 37° C. in LB medium with […] kanamycin. 0.2 uL of the bacterial culture (OD600) were seeded to the other side of HK OP50 plate. About 300 synchronized L1 worms were added to the screen plate, and cultured at 20° C., then scored for worm size at day 3 and day 4. The entire library was used for the primary screen; each bacterial mutant was screened once. For the secondary screen, 200 candidate mutants were screened (3 replicates) to confirm the slow growth phenotype.
Chemical supplementation of culture plates. For chemical supplementation, each chemical was dissolved in water or DMSO to generate a stock. The stock solution was added to HK OP50 and then spotted onto NGM plates. […] For CaEDTA supplementation (Kiang et al., 2014), 50 ul of CaEDTA (50 ug/ul) was spread onto the center of the NGM plates seeded with OP50, then different volume of the FeCl3[175 ug/ul] […] Bacterial growth analyses. Overnight cultures were diluted to a final OD600=0.01 in 200 μL of NGM liquid medium. Bacteria were grown in 96-well plates with shaking in a Synergy2 plate reader (BioTek) at 37° C. for 17 h. The OD600 was recorded at 20 min intervals.
Analysis of larval growth by measuring worm size. Synchronized L1 worms were seeded on the indicated NGM plate and grew to the indicated times. Photos were taken and worms volume in each photo were measured by WormSizer software (Moore et al., 2013).

Data set [1] has as its system mitochondria from HEK293T cells. Kind of data set: In vitro mitochondrial iron uptake assay, mitochondria from HEK293T cells. The data set is classed as biochemical, human. The source says: Moreover, using siRNA knockdown (FIG. 13A), the present inventors observed that this Ent-mediated increase depended on ATP5A1 (FIG. 6E, F) in a similar manner as that in the assays for C. elegans (FIG. 5A, D). The present inventors also measured the mitochondrial iron level in cells by using the fluorescent mitochondrial iron indicator, RPA, to which iron binding quenches its fluorescence. […] The relatively smaller changes seen for cultured cells, compared to the difference in worms fed heat-killed food (FIG. 2), may potentially be due to the higher base iron level under the cell culturing condition.
Mitochondrial iron uptake assays. For the in vitro mitochondrial iron uptake assay, the present inventors modified a published procedure for analysis of mammalian cells (Devireddy et al., 2010). […] The samples were incubated for 4 hours at room temperature, and the amount of 55Fe in lysed mitochondria was determined by liquid scintillation.

In data set [2] the test system is murine intestinal epithelial (MODE-K) cells. Kind of data set: Cellular iron level by Calcein AM fluorescence in MODE-K cells +/- DFO. Format: cell-based, mouse. How it is done:
The present inventors then created a low-iron condition by adding an iron chelator, Deferoxamine (DFO) to the medium (FIG. 18A). […] The assay was also performed using mouse intestinal epithelial (MODE-K) cells.

The next data set relates to liposomes. Kind of data set: Iron traffic across the lipid bilayer of synthetic liposomes +/- ATPSα. Format: biochemical. The procedure:
ATPSα (ATP-1 or ATP5A1) was added to the liposome by an established method. […] The Calcein AM dye was added to liposomes +/− ATPSα and the fluorescence intensity of the liposome was measured; (B) Liposomes were incubated with radiolabel ed Fe^3+ (''FeCl3) and the radioactivity (relative CPM) of the liposome was measured. Method (A) measures iron inside the liposome, since calcein AM is only inside.

The subject of data set [3] is anemic mouse model (dietary anemia). Kind of data set: Anemic mouse model (dietary anemia), Ent by oral gavage. To be noted: female mice on iron-deficient diet. Format: in vivo. The source says:
The inventors fed 3-week old female mice an iron-deficient diet (IDD) (or control diet) for 6 weeks to induce anemia (confirmed by hemoglobin measurement). […] As generally shown in FIGS. 20A-B, feeding IDD caused a drastic reduction of both hemoglobin and iron levels. […] A commercial kit (BioAssay system) was used to obtain hemoglobin level. Under normal conditions, ˜70% of the iron absorbed from the intestine is used to generate hemoglobin, and only a small percent may be stored in the liver or other somatic tissues if iron is in excess. Under anemic conditions, a great percentage of iron that has entered mitochondria (then bound to heme) may be funneled to erythropoiesis. Therefore, it was not unexpected to see little impact of Ent supplementation on liver iron level (iron storage).

The nature of data set [4]: Ent stability by CAS liquid assay. The data set is classed as physicochemical. An excerpt:
FIG. 25. […] Degradation is indicated by increased absorbance. […] Degradation is indicated by increased relative fluorescence. […] For all tests, dilutions were kept at room temp and exposed to light. Error is standard deviation of the mean.

Regarding `O=C(N[C@H]1COC(=O)[C@@H](NC(=O)c2cccc(O)c2O)COC(=O)[C@@H](NC(=O)c2cccc(O)c2O)COC1=O)c1cccc(O)c1O` [Ent, enterobactin], the “rescue of worm growth by Ent supplementation” value in the data set with C. elegans (RNAi of atp-1 (not ctl-2)) is given as “prevented the rescue of worm growth”. Further, the worm growth entry in the data set on C. elegans (ferric chloride added to live wild-type E. coli, with heat-killed E. coli) is recorded as “this growth defect was suppressed”. In addition, the “worm growth with dietary supplementation” value with C. elegans is “completely overcome”; in the data set with C. elegans (listed as Enterobactin) it was “recovers the growth defect seen with entF-”. The development of worms entry in the data set on C. elegans (worms fed only heat-killed bacteria) was “did not result in any appreciable effect”. The “iron level in mitochondria” value in data set [1] is “prominently increased”. Moreover, in data set [2] (iron-poor/DFO condition), the “effect on cellular iron level” value is recorded as “more pronounced”. Besides, the cellular iron level entry in data set [2] (standard medium) is recorded as “modestly increased the cellular iron level”. Also, the “level of iron inside the liposome (Calcein AM)” value in the data set with liposomes (FeCl3 +/- Ent 1.5 uM) is reported as “clearly boosted”. In the data set with liposomes (radiolabeled FeCl3 +/- Ent 1.5 uM), the “level of iron associated with the liposome (radioactivity)” value is given as “clearly boosted”. In addition, in data set [3] (oral gavage), the “iron level in the spleen” value is listed as “increased in the spleen”. For the same molecule, in data set [3] (oral gavage once every two days for two weeks), the hemoglobin level entry is recorded as “partially but significantly recovered”. Further, in data set [4] (100% DMSO, room temp, light), the stability entry is on record as “little change during the assay period”. The “stability in H2O at varying pH” value in data set [4] (H2O pH 6.5/7) was “more stable than the other dilutions in acidic and basic H2O”. The “time of rapid degradation” value in data set [4] (H20 (pH 5.5) with 10% DMSO, room temp, light) is not above 60 min. For the same molecule, the “stability in deionized water” value in data set [4] (pH 5.5) is “highly unstable”.

The values are drawn from US20210187014A1 (The Regents of the University of Colorado, a body corporate, priority 2018, published 2021).
